Test results published in publication PMC10175918 (Communications Biology, 2023).
Where two headings read alike, the source gives them in different places.

Key:
Assay in all cases: cell-based
Design in all cases: species or system HEK293A; AP-TGFα shedding assay, transfected GPCR plus chimeric Gα mixture, AP release as % of TPA response
Conditions in all cases: HEK293-A
[1] = biological target: T1, G protein-coupled receptor 18 (Homo sapiens, UniProt Q14330)
T1 construct: gene GPR18
T1 sequence (Q14330 1-331): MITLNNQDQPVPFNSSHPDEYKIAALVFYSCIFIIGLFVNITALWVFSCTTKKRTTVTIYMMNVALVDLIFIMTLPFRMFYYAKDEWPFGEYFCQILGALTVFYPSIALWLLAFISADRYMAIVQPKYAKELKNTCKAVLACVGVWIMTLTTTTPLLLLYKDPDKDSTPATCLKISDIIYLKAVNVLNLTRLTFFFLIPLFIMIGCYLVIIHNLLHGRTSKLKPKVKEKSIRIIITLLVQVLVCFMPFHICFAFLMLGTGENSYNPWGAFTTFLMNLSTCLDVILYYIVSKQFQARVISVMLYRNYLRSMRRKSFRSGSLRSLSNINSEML

[2] = biological target: T2, G protein-coupled receptor 183 (Epstein-Barr Virus Induced Gene 2) (Homo sapiens, UniProt P32249)
T2 construct: gene GPR183
T2 sequence (P32249 whole entry): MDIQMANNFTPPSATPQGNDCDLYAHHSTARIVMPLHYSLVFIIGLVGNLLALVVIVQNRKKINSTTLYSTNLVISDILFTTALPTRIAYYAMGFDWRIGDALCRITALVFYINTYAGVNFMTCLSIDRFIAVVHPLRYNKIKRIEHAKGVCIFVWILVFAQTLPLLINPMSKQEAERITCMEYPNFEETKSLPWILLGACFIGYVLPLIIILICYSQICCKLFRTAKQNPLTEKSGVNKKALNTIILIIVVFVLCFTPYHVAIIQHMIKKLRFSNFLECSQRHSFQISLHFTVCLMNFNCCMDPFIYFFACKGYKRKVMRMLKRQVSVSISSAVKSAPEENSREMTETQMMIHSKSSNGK

[3] = biological target: T3, G protein-coupled receptor 65 (Homo sapiens, UniProt Q8IYL9)
T3 construct: gene GPR65
T3 sequence (Q8IYL9 whole entry): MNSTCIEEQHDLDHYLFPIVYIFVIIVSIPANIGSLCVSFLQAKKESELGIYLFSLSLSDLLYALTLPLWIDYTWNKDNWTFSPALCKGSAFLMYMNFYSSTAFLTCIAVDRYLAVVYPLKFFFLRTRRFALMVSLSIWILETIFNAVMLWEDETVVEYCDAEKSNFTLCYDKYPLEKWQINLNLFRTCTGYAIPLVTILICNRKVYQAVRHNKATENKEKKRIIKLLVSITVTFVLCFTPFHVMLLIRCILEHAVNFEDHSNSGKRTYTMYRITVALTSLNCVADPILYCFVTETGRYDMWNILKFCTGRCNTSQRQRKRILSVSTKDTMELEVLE

[4] = biological target: T4, hypocretin (orexin) receptor 2 (Homo sapiens, UniProt O43614)
T4 construct: gene HCRTR2
T4 sequence (O43614 1-444): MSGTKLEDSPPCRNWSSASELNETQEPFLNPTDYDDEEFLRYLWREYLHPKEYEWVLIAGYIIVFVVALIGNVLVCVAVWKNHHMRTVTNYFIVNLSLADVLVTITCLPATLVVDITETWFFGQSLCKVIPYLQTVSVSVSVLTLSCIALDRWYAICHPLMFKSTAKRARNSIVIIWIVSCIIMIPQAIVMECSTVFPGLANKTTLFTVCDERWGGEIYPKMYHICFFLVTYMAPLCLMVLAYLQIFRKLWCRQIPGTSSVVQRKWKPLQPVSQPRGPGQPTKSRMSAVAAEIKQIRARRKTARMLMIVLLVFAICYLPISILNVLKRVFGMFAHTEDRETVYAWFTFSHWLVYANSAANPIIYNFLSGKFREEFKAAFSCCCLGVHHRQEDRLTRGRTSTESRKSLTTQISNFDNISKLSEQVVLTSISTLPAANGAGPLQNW

[5] = biological target: T5, relaxin/insulin-like family peptide receptor 1 (Homo sapiens, UniProt Q9HBX9)
T5 construct: gene RXFP1
T5 sequence (Q9HBX9 1-757): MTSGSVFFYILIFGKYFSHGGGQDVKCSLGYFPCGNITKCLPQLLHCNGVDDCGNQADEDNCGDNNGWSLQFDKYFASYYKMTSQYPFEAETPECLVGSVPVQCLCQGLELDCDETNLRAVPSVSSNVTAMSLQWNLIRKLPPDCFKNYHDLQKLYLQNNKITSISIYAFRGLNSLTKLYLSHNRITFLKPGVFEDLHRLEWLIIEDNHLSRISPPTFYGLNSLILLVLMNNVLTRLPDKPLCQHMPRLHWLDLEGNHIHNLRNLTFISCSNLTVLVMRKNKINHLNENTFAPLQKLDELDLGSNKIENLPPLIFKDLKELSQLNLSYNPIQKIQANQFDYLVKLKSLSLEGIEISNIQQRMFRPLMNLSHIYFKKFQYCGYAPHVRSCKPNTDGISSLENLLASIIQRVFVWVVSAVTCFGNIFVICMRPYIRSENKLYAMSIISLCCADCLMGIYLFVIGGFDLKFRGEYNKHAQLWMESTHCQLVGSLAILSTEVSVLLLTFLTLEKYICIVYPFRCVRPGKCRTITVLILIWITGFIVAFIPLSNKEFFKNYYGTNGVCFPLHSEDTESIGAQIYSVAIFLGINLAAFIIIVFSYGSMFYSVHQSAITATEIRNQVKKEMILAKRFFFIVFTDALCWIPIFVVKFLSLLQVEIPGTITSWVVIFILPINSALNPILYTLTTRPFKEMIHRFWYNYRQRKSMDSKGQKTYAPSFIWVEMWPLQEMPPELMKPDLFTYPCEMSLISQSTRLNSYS

[6] = biological target: T6, relaxin/insulin-like family peptide receptor 3 (Homo sapiens, UniProt Q9NSD7)
T6 construct: gene RXFP3
T6 sequence (Q9NSD7 1-469): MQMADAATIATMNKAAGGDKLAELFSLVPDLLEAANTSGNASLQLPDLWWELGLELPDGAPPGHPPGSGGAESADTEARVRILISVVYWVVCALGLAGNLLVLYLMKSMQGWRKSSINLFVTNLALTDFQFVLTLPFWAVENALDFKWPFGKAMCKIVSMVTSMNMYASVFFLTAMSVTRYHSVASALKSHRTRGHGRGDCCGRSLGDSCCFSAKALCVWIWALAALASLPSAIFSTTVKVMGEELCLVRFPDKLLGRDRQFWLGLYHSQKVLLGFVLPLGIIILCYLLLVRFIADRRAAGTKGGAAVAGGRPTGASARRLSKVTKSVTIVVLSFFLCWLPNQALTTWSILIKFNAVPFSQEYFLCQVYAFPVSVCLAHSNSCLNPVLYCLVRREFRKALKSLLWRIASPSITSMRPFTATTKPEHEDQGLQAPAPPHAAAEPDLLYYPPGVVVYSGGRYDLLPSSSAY

[7] = read-out: % GPCR activation of 10μM GS441524 compared to TPA
[8] = read-out: % GPCR activation of 10µM Remdesivir compared to TPA
[9] = read-out: % GPCR activation of 10μM Sofosbuvir compared to TPA
[10] = read-out: % GPCR activation of 100μM Favipiravir compared to TPA
[11] = read-out: % GPCR activation of 10µM Molnupiravir compared to TPA

Molecule `N#C[C@@]1(c2ccc3c(N)ncnn23)O[C@H](CO)[C@@H](O)[C@H]1O` [GS441524] has an activity at 10 µM [1, 7] of 2.08%, an activity at 10 µM [2, 7] of -1.47% and an activity at 10 µM [3, 7] of -3.08%. It also gave an activity at 10 µM [4, 7] of 2.17%, an activity at 10 µM [5, 7] of -1.09% and an activity at 10 µM [6, 7] of 1.98%.

For `CCC(CC)COC(=O)[C@H](C)N[P@](=O)(OC[C@H]1O[C@@](C#N)(c2ccc3c(N)ncnn23)[C@H](O)[C@@H]1O)Oc1ccccc1` [remdesivir], the activity at 10 µM [1, 8] was 1.12%, the activity at 10 µM [2, 8] was 0.482% and the activity at 10 µM [3, 8] was -1.39%. For the same molecule, the activity at 10 µM [4, 8] was 0.000265%, the activity at 10 µM [5, 8] was -0.564% and the activity at 10 µM [6, 8] was 3.55%.

`CC(C)OC(=O)[C@H](C)N[P@](=O)(OC[C@H]1O[C@@H](n2ccc(=O)[nH]c2=O)[C@](C)(F)[C@@H]1O)Oc1ccccc1` [sofosbuvir] showed an activity at 10 µM [1, 9] of -3.04%, an activity at 10 µM [2, 9] of -0.758% and an activity at 10 µM [3, 9] of -10.5%. The activity at 10 µM [4, 9] was -1.97%, the activity at 10 µM [5, 9] was 0.456% and the activity at 10 µM [6, 9] was -2.19%.

`NC(=O)c1nc(F)cnc1O` [favipiravir, 6-fluoro-3-hydroxy-2-pyrazinecarboxamide] gave an activity at 100 µM [1, 10] of -1%, an activity at 100 µM [2, 10] of -1.16% and an activity at 100 µM [3, 10] of 1.28%. The activity at 100 µM [4, 10] was 0.725%, the activity at 100 µM [5, 10] was 0.274% and the activity at 100 µM [6, 10] was 1.4%.

For `CC(C)C(=O)OC[C@H]1O[C@@H](n2ccc(NO)nc2=O)[C@H](O)[C@@H]1O` [molnupiravir], the activity at 10 µM [1, 11] was -5.39%, the activity at 10 µM [2, 11] was -0.842% and the activity at 10 µM [3, 11] was -8.38%. For the same molecule, the activity at 10 µM [4, 11] was 0.477%, the activity at 10 µM [5, 11] was -0.957% and the activity at 10 µM [6, 11] was -2.92%.
